# Measurements reported in US9896441B2 (Lycera Corporation, priority 2014, dated 2018).
# Values joined by “and” are separate entries in the source; they are usually repeats but may differ in a detail not shown here. Identical values can stand only once.
# Molecular target: T1, RORγ-LBD (Homo sapiens, UniProt P51449)
# T1 construct: made in house; host or cells: SF9 cells (baculovirus); used as diluted lysate
# T1 sequence (P51449 269-508 limits assumed): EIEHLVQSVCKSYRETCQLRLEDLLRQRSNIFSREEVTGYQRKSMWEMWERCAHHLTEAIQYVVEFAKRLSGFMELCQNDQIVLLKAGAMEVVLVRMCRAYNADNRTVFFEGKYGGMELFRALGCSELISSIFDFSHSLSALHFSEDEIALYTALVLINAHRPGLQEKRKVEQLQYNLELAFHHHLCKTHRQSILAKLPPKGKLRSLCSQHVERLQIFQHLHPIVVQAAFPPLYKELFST
# Assay: RORγ-Ligand Binding Domain (LBD) TR-FRET Assay;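 on TR-FRET Assay Max Response: 665/615 nm signal ratio set to 100 without ursolic acid or test compound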
# Assay type: biochemical
# Settings: RORγ-LBD TR-FRET
# Experimental: Assay procedures and results are described below.
# HIS-tagged RORγ-LBD protein was expressed in SF9 cells using a baculovirus expression system. The lysate was diluted in assay buffer (50 mM Tris pH 7.0, 50 mM KCl, 1 mM EDTA, 0.1 mM DTT, 0.01% BSA) to obtain RORγ-LBD final concentration of ˜3 nM in a 384-well assay plate (need to titrate for each batch of protein).
# A stock of biotinylated-LXXLL peptide from coactivator SRC1 (Biotin-[…]) was prepared in assay buffer and added to each well (200 nM final concentration). […] RORγ antagonist ursolic acid was also included at a final concentration of 2 μM. Compounds were diluted in DMSO and further diluted in assay buffer with a final DMSO concentration at 1%.
row,Compound,EC50
1,"O=S(=O)(c1cccc(C(F)(F)F)c1)N1CCCc2cc(O[C@H]3CCc4ccccc43)ccc21 [Example 25V, (S)-6-((2,3-dihydro-1H-inden-1-yl)oxy)-1-((3-(trifluoromethyl)-phenyl)sulfonyl)-1,2,3,4-tetrahydroquinoline]",0.5 to 5 µM
2,O=S(=O)(c1cccc(C(F)(F)F)c1)N1CCCc2cc(C3CC3)c(OCc3c(F)cccc3Cl)cc21 [Example 28B],< 0.5 µM
3,"COc1cc(S(=O)(=O)N2CCCc3cc(OCc4c(F)cccc4Cl)ccc32)ccc1F [Example 25O, 6-((2-chloro-6-fluorobenzyl)oxy)-1-((4-fluoro-3-methoxyphenyl)sulfonyl)-1,2,3,4-tetrahydroquinoline]",< 0.5 µM
4,"COc1cc(S(=O)(=O)N2CCCc3ccc(OCc4c(F)cccc4Cl)cc32)ccc1F [Example 24, 7-((2-Chloro-6-fluorobenzyl)oxy)-1-((4-fluoro-3-methoxyphenyl)sulfonyl)-1,2,3,4-tetrahydroquinoline]",< 0.5 µM
5,"COc1cc(S(=O)(=O)N2CCCc3ccc(O[C@H]4CCc5ccccc54)cc32)ccc1F [Example 25A, (S)-7-((2,3-dihydro-1H-inden-1-yl)oxy)-1-((4-fluoro-3-methoxyphenyl)sulfonyl)-1,2,3,4-tetrahydroquinoline]",< 0.5 µM
6,CCn1cc(S(=O)(=O)N2C[C@H](CNC(C)=O)Oc3ccc(NCc4c(F)cccc4Cl)cc32)c(OCCO)n1 [Example 28E],< 0.5 µM
7,O=S(=O)(c1cccc(C(F)(F)F)c1)N1CCCc2cc(Br)c(OCc3c(F)cccc3Cl)cc21 [Example 28F],< 0.5 µM
8,"COc1cc(S(=O)(=O)N2c3cc(OCc4c(F)cccc4Cl)ccc3C[C@@H](C(=O)O)[C@H]2C)ccc1F (racemic) [Example 21, (2R,3R)-7-((2-Chloro-6-fluorobenzyl)oxy)-1-((4-fluoro-3-methoxyphenyl)sulfonyl)-2-methyl-1,2,3,4-tetrahydroquinoline-3-carboxylic acid]",< 0.5 µM

# Second part, the compound after the results:
row,EC50,Compound
1,0.5 to 5 µM,"O=C(O)CC[C@H]1CN(S(=O)(=O)c2cccc(C(F)(F)F)c2)c2cc(/C=C/c3ccnn4cccc34)ccc2O1 [Example 89BM, (S,E)-3-(6-(2-(pynolo[1,2-b]pyridazin-4-yl)vinyl)-4-((3-(trifluoromethyl)phenyl)sulfonyl)-3,4-dihydro-2H-benzo[b][1,4]oxazin-2-yl)propanoic acid]"
2,0.5 to 5 µM,"O=C(O)CC[C@H]1CN(S(=O)(=O)c2cc(C(F)(F)F)cnc2OCCO)c2cc(/C=C3\CCCOC3)ccc2O1 [Example 95X, (S,E)-3-(6-((dihydro-2H-pyran-3(4H)-ylidene)methyl)-4-((2-(2-hydroxyethoxy)-5-(trifluoromethyl)pyridin-3-yl)sulfonyl)-3,4-dihydro-2H-benzo[b][1,4]oxazin-2-yl)propanoic acid]"
3,0.5 to 5 µM,"O=C(O)CC[C@H]1CN(S(=O)(=O)c2cc(C(F)(F)F)cnc2OCCO)c2cc(C=C3CCC(O)CC3)ccc2O1 (stereo partly drawn) [Example 95V, 3-((2S)-6-((4-hydroxycyclohexylidene)-methyl)-4-((2-(2-hydroxyethoxy)-5-(trifluoromethyl)pyridin-3-yl)sulfonyl)-3,4-dihydro-2H-benzo[b][1,4]oxazin-2-yl)propanoic acid]"
4,> 10 µM,"O=C(O)CC[C@H]1CN(S(=O)(=O)c2cccc(OC(F)F)c2)c2cc(/C=C/c3nccnc3Cl)ccc2O1 [Example 89DS, (S,E)-3-(6-(2-(3-chloropyrazin-2-yl)vinyl)-4-((3-(difluoromethoxy)phenyl)sulfonyl)-3,4-dihydro-2H-benzo[b][1,4]-oxazin-2-yl)propanoic acid]"
5,< 0.5 µM and 0.5 to 5 µM,"COC(=O)CC[C@H]1CN(S(=O)(=O)c2cccc(C(F)(F)F)c2)c2cc(/C=C/c3cccn4ccnc34)ccc2O1 [Example 89DE, methyl (S,E)-3-(6-(2-(imidazo[1,2-a]pyridin-8-yl)vinyl)-4-((3-(trifluoromethyl)-phenyl)sulfonyl)-3,4-dihydro-2H-benzo[b][1,4]oxazin-2-yl)propanoate]"
6,> 10 µM,"CC(=O)c1cccc(/C=C/c2ccc3c(c2)N(S(=O)(=O)c2cccc(C(F)(F)F)c2)C[C@H](CCC(=O)O)O3)n1 [Example 89BX, (S,E)-3-(6-(2-(6-acetylpyridin-2-yl)vinyl)-4-((3-(trifluoromethyl)-phenyl)sulfonyl)-3,4-dihydro-2H-benzo[b][1,4]oxazin-2-yl)propanoic acid]"

# Same assay, conditions: RORγ-LBD TR-FRET assay
row,EC50 [µM],Compound
1,> 10,"C/C(=C\c1ccc2c(c1)C[C@@H](C(=O)O)[C@@H](C)N2S(=O)(=O)c1cccc(C(F)(F)F)c1)c1c(F)cccc1Cl [Example 149, (2R,3R)-6-((E)-2-(2-Chloro-6-fluorophenyl)prop-1-en-1-yl)-2-methyl-1-((3-(trifluoromethyl)phenyl)sulfonyl)-1,2,3,4-tetrahydroquinoline-3-carboxylic acid]"
2,< 0.5,"CCOC(=O)C(C)(C)CC1CC(S(=O)(=O)c2ccc(F)c(OC)c2)c2cc(OCc3c(F)cccc3Cl)ccc2O1 (stereo not drawn) [Example 185, Ethyl 3-(6-((2-chloro-6-fluorobenzyl)oxy)-4-((4-fluoro-3-methoxyphenyl)sulfonyl)chroman-2-yl)-2,2-dimethylpropanoate]"
3,< 0.5,"COC(=O)C(C)(C)C[C@@H]1Cc2ccc(/C=C(\C)c3c(F)cccc3Cl)cc2N(S(=O)(=O)c2ccc(F)c(OC)c2)C1 [Example 154B, methyl (S,E)-3-(7-(2-(2-chloro-6-fluorophenyl)prop-1-en-1-yl)-1-((4-fluoro-3-methoxyphenyl)sulfonyl)-1,2,3,4-tetrahydroquinolin-3-yl)-2,2-dimethylpropanoate]"
4,< 0.5,"CC(=O)N[C@@H]1Cc2ccc(/C=C(\C)c3c(F)cccc3Cl)cc2N(S(=O)(=O)c2cccc(C(F)(F)F)c2)[C@@H]1C [Example 148, N-((2R,3R)-7-((E)-2-(2-Chloro-6-fluorophenyl)prop-1-en-1-yl)-2-methyl-1-((3-(trifluoromethyl)phenyl)sulfonyl)-1,2,3,4-tetrahydroquinolin-3-yl)acetamide]"

# Same assay, conditions: RORγ-LBD TR-FRET assay, maximum response
row,Compound,TR-FRET Assay Max Response
1,"CCOC(=O)C(C)(C)CC1CC(S(=O)(=O)c2ccc(F)c(OC)c2)c2cc(OCc3c(F)cccc3Cl)ccc2O1 (stereo not drawn) [Example 185, Ethyl 3-(6-((2-chloro-6-fluorobenzyl)oxy)-4-((4-fluoro-3-methoxyphenyl)sulfonyl)chroman-2-yl)-2,2-dimethylpropanoate]",** (a value in the range of greater than 90 to 150)
2,"COC(=O)C(C)(C)C[C@@H]1Cc2ccc(/C=C(\C)c3c(F)cccc3Cl)cc2N(S(=O)(=O)c2ccc(F)c(OC)c2)C1 [Example 154B, methyl (S,E)-3-(7-(2-(2-chloro-6-fluorophenyl)prop-1-en-1-yl)-1-((4-fluoro-3-methoxyphenyl)sulfonyl)-1,2,3,4-tetrahydroquinolin-3-yl)-2,2-dimethylpropanoate]",** (a value in the range of greater than 90 to 150)
3,"CC(=O)N[C@@H]1Cc2ccc(/C=C(\C)c3c(F)cccc3Cl)cc2N(S(=O)(=O)c2cccc(C(F)(F)F)c2)[C@@H]1C [Example 148, N-((2R,3R)-7-((E)-2-(2-Chloro-6-fluorophenyl)prop-1-en-1-yl)-2-methyl-1-((3-(trifluoromethyl)phenyl)sulfonyl)-1,2,3,4-tetrahydroquinolin-3-yl)acetamide]",** (a value in the range of greater than 90 to 150)

# Same assay, conditions: with 2 μM ursolic acid (RORγ antagonist); highest test concentration 10 μM
row,Compound,EC50 [µM]
1,O=C(O)C1Cc2ccc(OCc3c(Cl)cccc3Cl)cc2N(S(=O)(=O)c2cccc(C(F)(F)F)c2)C1 (stereo not drawn),< 0.5
2,O=C(O)C1Cc2ccc(OCc3cc(F)ccc3Cl)cc2N(S(=O)(=O)c2cccc(C(F)(F)F)c2)C1 (stereo not drawn),< 0.5
3,CC(=O)NC[C@H]1CN(S(=O)(=O)c2cccc(C(F)(F)F)c2)c2cc(NCc3c(F)cccc3Cl)ccc2O1,< 0.5
4,Cc1ccc(COc2ccc3c(c2)N(S(=O)(=O)c2cccc(C(F)(F)F)c2)CC(C(=O)O)C3)cc1F (stereo not drawn),> 10

# Further lines, results first:
row,EC50 [µM],Compound
1,< 0.5,"C/C(=C\c1ccc2c(c1)N(S(=O)(=O)c1cc(C3CC3)cnc1OCCO)C[C@H](CCC(=O)O)O2)c1c(F)cccc1Cl [Example 86BC, (S,E)-3-(6-(2-(2-chloro-6-fluorophenyl)prop-1-en-1-yl)-4-((5-cyclopropyl-2-(2-hydroxyethoxy)pyridin-3-yl)sulfonyl)-3,4-dihydro-2H-benzo[b][1,4]oxazin-2-yl)propanoic acid]"
2,< 0.5,"COC(=O)CCC[C@H]1CN(S(=O)(=O)c2cccc(C(F)(F)F)c2)c2cc(/C=C(\C)c3c(F)cccc3Cl)ccc2O1 [Example 195H, methyl (S,E)-4-(6-(2-(2-chloro-6-fluorophenyl)prop-1-en-1-yl)-4-((3-(trifluoromethyl)phenyl)-sulfonyl)-3,4-dihydro-2H-benzo[b][1,4]oxazin-2-yl)butanoate]"
